From patent publication US10335365B2, “Bladder cancer specific ligand peptides” (The Regents of the University of California, priority 2009, dated 2019)
Positions of bridges follow the written chain, without caps; N, C: chain ends. Non-standard residues stand in square brackets, D forms with d. No end group written: not given here.

Experiments:
[1] = tested on: normal urothelial cells; assay: Whole cell bead binding assay, normal urothelial cells; parameters: species or system human; settings: peptide on OBOC beads
Procedure: Four bladder cancer cell lines including 5637 (HTB-9), SCaBER, TCCSUP (HTB-5), and T24 (HTB-4) were purchased from the American Type Culture Collection (Manassas, Va.). The isolation, characterization and maintenance of normal urothelial cells was previously described in detail (Bagai, et al., J Biol Chem, (2002) 277: 23828-23837). Normal peripheral blood mononuclear cells were prepared by using the Ficoll-Paque gradient method from peripheral blood of healthy donors. Bladder cancer tissue obtained from cystectomy was cut into pieces, digested with collagenase at 37° C. for 1-2 hours per the manufacturer's protocol, and filtered through a 40-μm strainer to make single cell suspension. Tumor cells were then isolated with Ficoll-Paque gradient method (800 g, 30 min at 4° C.). Informed consent was obtained from each patient or healthy donor before specimens were collected.
The beads were washed extensively with double-distilled water and phosphate-buffered saline (PBS) before screening. Bladder cancer cells and normal urothelial cells were detached from culture dishes with trypsin/EDTA or a Detach kit (PromoCell, Heidelberg, Germany), washed with their corresponding culture medium, resuspended at 10^6 cells/ml and incubated with OBOC beads in Petri dishes in a humidified CO2 incubator at 37° C. with shaking (60 rpm). […]

[2] = tested on: cells from the normal specimen of the same bladder; assay: Whole cell bead binding assay, cells from normal specimen of the same bladder; parameters: species or system human; settings: beads coated with PLZ4; same cystectomy specimen
Procedure: The beads were washed extensively with double-distilled water and phosphate-buffered saline (PBS) before screening. Bladder cancer cells and normal urothelial cells were detached from culture dishes with trypsin/EDTA or a Detach kit (PromoCell, Heidelberg, Germany), washed with their corresponding culture medium, resuspended at 10^6 cells/ml and incubated with OBOC beads in Petri dishes in a humidified CO2 incubator at 37° C. with shaking (60 rpm). Beads bound by cells appeared as rosettes with a central bead covered by a layer(s) of cells under a microscope. The positive beads were picked with a pipette under inverted microscope, treated with Quanidine HCl (8M, 20 min) to remove cells and proteins on beads surface, and underwent a second round of incubation with the same cells to confirm the binding. Only those beads with cell bindings at both rounds were sent for the amino acid sequencing as previously described (Peng, et al., Nat Chem Biol, (2006) 2: 381-389).
The cell surface molecules on established cell lines in culture may not be the same as those molecules on primary bladder cancer cells. It was assessed if PLZ4 could bind to bladder cancer cells from patients. Beads coated with PLZ4 could bind to primary bladder cancer cells from patients (FIGS. 3A and B). […] In one patient, both normal tissue and bladder cancer tissue from the same cystectomy specimen were available.

[3] = tested on: 5637 cells; assay: Flow cytometry binding affinity on 5637 cells; parameters: species or system human; settings: PLZ4-biotin with streptavidin-PE
Procedure: All of the following steps were done on ice. 5×10^5 5637 cells were washed 3 times with 1 ml cold PBS (pH 7.4)-BSA (1%), re-suspended with 300 μl cold BSA (5%)-PBS (pH 7.4), and then incubated for 1 hour on ice. The cells were centrifuged and suspended with 50 μl PLZ4-biotin solution at 800, 400, 200, 100, 50, 25, 10, 5, 2.5, 1, 0.1, and 0 μM, and incubated for 1 hour on ice. Cells treated without PLZ4-biotin was considered as a control. After washing 6 times with 1 ml cold PBS-Tween-20 (0.05%) buffer, cells were re-suspended with 50 μl streptavidin (SA)-PE (1:500 in PBS-BSA, 1%) (1 mg/ml, Invitrogen, Carlsbad, Calif.), incubated for 1 hour on ice, washed with PBS (pH 7.4) 3 times, re-suspended with 500 μl PBS (pH 7.4), and analyzed using a Coulter Epics XL-MCL flow cytometer (Beckman Coulter, Inc.). The experiment was repeated three times. The mean value was expressed in FIG. 4.
Next, it was determined if fluorescence cell sorting could be used to identify bladder cancer cells. PLZ4 peptide conjugated to biotin through hydrophilic linkers was synthesized. Biotinylated PLZ4 was then incubated with streptavidin-PE to generate PLZ4-PE conjugate through the strong binding of biotin and streptavidin. […] The binding affinity (Kd) is around 30 μM.

[4] = tested on: parental K562 cells or cells transfected other integrins; assay: Bead binding to parental K562 cells or cells transfected with other integrins; settings: OBOC beads bearing PLZ4
Procedure: Here, OBOC beads bearing PLZ4 peptides on the surface were incubated with K562 cells transfected with various integrins. K562 cells express endogenous a501 integrin. […] Several other ligands obtained from the initial screening also contain the DGR motif. […] To identify which amino acids are involved in determining cell binding and binding specificity, “alanine walk” was performed combined with the rainbow bead coding methods (Luo, et al., J Comb Chem, (2008) 10: 599-604). The amino acids aspartic acid (D, the X2 position), arginine (R, X4) and phenylalanine (F, X7) are important for cell binding. Replacement of any of these amino acids with alanine completely abolished the binding of the peptides to 5637 cells (FIG. 6B). […] Methionine at the X5 position could be replaced to many other amino acids without compromising the binding affinity. Based on this analysis, the three amino acids (D, G and R) at the N-terminus together with the two amino acids (G and F) at the C-terminus determine the binding specificity. Therefore, the binding pocket may be in the clover shape: one for the N-terminal three amino acids, one for the C-terminal two amino acids and a middle pocket. So w the depth of the middle binding pocket by adding different numbers of glycine residue to the X5 position. […]

[5] = tested on: bladder cells from a dog with chronic cystitis; assay: Whole cell binding assay of Example 2, chronic cystitis bladder cells; parameters: species or system canine; settings: PLZ4 beads
Procedure: This experiment was repeated 3 times for cell lines. […] 5637 human bladder cancer cell line; b. […] The average diameter of the beads is 90 μm. […] This experiment was repeated for 3 times. (200×)
To determine the binding of PLZ4 to canine TCC cell lines, whole cell binding assay was performed. PLZ4 was synthesized on TentaGel S NH2 resin beads (Rapp Polymere Gmbh, Germany) (Pegram, et al., J Clin Oncol (1998) 16:2659-2671), and incubated with single suspensions of five different canine carcinoma cell lines including K9TCC-PU, K9TCC-PU-AxA, K9TCC-PU-In, K9TCC-PU-AxC, and K9TCC-PU-Nk (kindly provided by Deborah Knapp at Purdue University, West Lafayette, Ind., USA) at 10^6 cells/ml. The negative control was normal urothelial cells obtained from dogs that were euthanized due to non-bladder-related disorders. Human bladder cancer cell line, 5637 were served as the positive control. If PLZ4 bound to cells in suspension, then the bead surface was covered with cells. Over 95% of the bead surface was covered with 5637 and K9TCC cells (FIG. 7A-a and b, respectively).

Substance: cQDGRMGFc ([dC]QDGRMGF[dC]; disulfide 1-9 (inferred)) [PLZ4, bladder cancer-specific ligand peptide]
- binding to normal urothelial cells [1]: did not bind
- binding to cells from the normal specimen of the same bladder [2]: not to the cells from the normal specimen
- Kd [3]: ~30 µM
- binding to parental K562 cells or cells transfected with other integrins [4]: not to the parental K562 cells or cells transfected other integrins
- binding to bladder cells from a dog with chronic cystitis [5]: no cell binding
